Assay results from US5475032A, “2,4-disulfonyl phenyl butyl nitrone, its salts, and their use as pharmaceuticals” (Oklahoma Medical Research Foundation, priority 1995, dated 1995).
Where two headings read alike, the source gives them in different places.

Tests used:
[1] = test system: glutamine synthetase (GS); experiment: protection of glutamine synthetase against βAP 25-35 (Example 11); format: biochemical, gerbil; details: co-incubation with 0.4 mg/ml BAP 25-35
Experimental: (§1) Cytosolic fractions from gerbil neocortex were prepared and enzyme activities determined. Samples were incubated in the presence of different concentrations of the peptide for 10 min prior to assay. Solid symbols represent the effects of the naturally occurring 25-35 fragment. […] Each point is the mean (+/- s.e.) of 5 observations. βAP derived and other cellular sources of free radicals are an important determinant of the initiation and progression of AD.
(§2) Each point is the mean (+/- s.e.) of 3 observations.

[2] = test system: acute lethal effects of adriamycin; experiment: comparative tests: nitrone pretreatment combined with adriamycin (Example 13); format: in vivo, mouse
Description: (§3) All injections were intraperitoneal.

[3] = as above; format: in vivo, mouse; details: mouse, in vivo, ip; 300 mg/kg with adriamycin; read-out: combined toxicity (lethality)
Description: as §3

[4] = test system: normal or uninjured cells; details: cited from earlier work
[5] = doses demonstrated to be possible; details: up to 1000 mg/kg/hour and higher, or i.v. bolus 10 to 2500 mg/kg
[6] = test system: neuron loss following brain ischemia and reperfusion injury; experiment: neuronal density, post-ischemia treatment, compound i.p. 30 min after reperfusion following 5 min ischemia (Example 4); format: in vivo, gerbil
[7] = test system: neuronal loss following ischemia; experiment: protection from neuronal loss, i.v. 60 min after reperfusion onset following 5 min ischemia (Example 5); format: in vivo, gerbil; details: for protection for neuronal loss (neuronal density): 60 min after reperfusion onset
[8] = test system: neuron loss following brain ischemia and reperfusion injury; experiment: neuronal density after 5 min bilateral carotid occlusion, compound i.p. 30 min before ischemia (Example 3); format: in vivo, gerbil; details: 30 min before ischemia
Experimental: In the experiments a test compound was administered to groups of six gerbils i.p. as a single dose 30 min before 5 min bilateral carotid occlusion. The density of neuronal nuclei in a 100 micron was measured. Two controls were present--controls which received no test compound and controls which received no test compound and no brain ischemia.

severe trauma ischemia = details: in vivo; cited from earlier work
[9] = test system: infarct volume following middle cerebral occlusion; experiment: infarct volume after middle cerebral occlusion (Example 7); format: in vivo, C57BL/6J mice; details: from 60 min after occlusion for 24 hours
Experimental: The ability of the compound of the invention to reduce infarct volume following an ischemic event was determined.

[10] = test system: infarct volume following middle cerebral artery occlusion; details: cited from earlier work
[11] = test system: lethality from 10 min ischemia; experiment: lethality protection in aged gerbils from 10 min ischemia (Example 8); format: in vivo, gerbil; details: 30 min before ischemia
[12] = test system: temporal/spatial short term memory following ischemia; experiment: 8-arm radial maze test 24 hours after ischemia (Example 6); format: in vivo, gerbil
Experimental: Brain injury can manifest itself as behavioral changes. In this experiment, young adult (3-4 months of age) gerbils were tested to determine their ability to perform an 8-arm maze test 24 hours following an ischemic event as described in Example 1. As compared to nonischemic animals, when untreated they committed many more errors. PBN and compound I were administered to some of the test animals.

creatine kinase (CK) = experiment: protection of creatine kinase against βAP 25-35 (Example 11); format: biochemical, gerbil; details: co-incubation with 0.4 mg/ml BAP 25-35
Experimental: as §1, §2

C57BL/6L mice = experiment: acute lethality, single i.p. doses of nitrone (Example 9); format: in vivo, mouse; details: PBN at 560 mg/kg, Compound I at doses nearly twenty times as great
Experimental: As detailed in Table 7. acute lethality in C57BL/6L mice was determined based upon varying sizes of single i.p. doses of nitrone.

CC(C)(C)[N+]([O-])=Cc1ccccc1 [PBN, Alpha-phenyl tert butyl nitrone]
protection of GS against the effects of βAP fragments [1]: asymptotically leveling out at a substantially incomplete level of protection
sedation ([2]; 100 mg/kg): slight sedation
sedation ([2]; 300 mg/kg): marked sedation
mortality [3]: 10 to 20%
effect on normal or uninjured cells [4]: no measurable effect on normal or uninjured cells
death or acute toxicity [5]: death or acute toxicity
Neuronal nuclei/100 micron field ([6]; 32 mg/kg i.p.): 1.09 Neuronal nuclei/100 micron field
Neuronal nuclei/100 micron field ([6]; 50 mg/kg i.p.): 1.85 Neuronal nuclei/100 micron field
Neuronal nuclei/100 micron field ([6]; 100 mg/kg i.p.): 2.11 Neuronal nuclei/100 micron field
Neuronal nuclei/100 micron field ([6]; 320 mg/kg i.p.): 2.25 Neuronal nuclei/100 micron field
Neuronal nuclei/100 micron field ([6]; 1000 mg/kg i.p.): Toxic
protection for neuronal loss (neuronal density) ([7]; 0.5 mg/kg single dose i.v.): 0.83
protection for neuronal loss (neuronal density) ([7]; 1.0 mg/kg single dose i.v.): 1.07
protection for neuronal loss (neuronal density) ([7]; 10 mg/kg single dose i.v.): 1.23
effect on neuronal density in control gerbils ([7]; control gerbils without brain injury): Neither PBN nor Compound I. had an effect on neuronal density
Neuronal nuclei/100 micron field ([8]; 3.2 mg/kg i.p.): 0.43 Neuronal nuclei/100 micron field
Neuronal nuclei/100 micron field ([8]; 10 mg/kg i.p.): 1.13 Neuronal nuclei/100 micron field
Neuronal nuclei/100 micron field ([8]; 32 mg/kg i.p.): 1.83 Neuronal nuclei/100 micron field
Neuronal nuclei/100 micron field ([8]; 50 mg/kg i.p.): 3.11 Neuronal nuclei/100 micron field
Neuronal nuclei/100 micron field ([8]; 100 mg/kg i.p.): 3.68 Neuronal nuclei/100 micron field
Neuronal nuclei/100 micron field ([8]; 320 mg/kg i.p.): 3.78 Neuronal nuclei/100 micron field
Neuronal nuclei/100 micron field ([8]; 1000 mg/kg i.p.): Toxic
Neuronal nuclei/100 micron field ([8]; 3200 mg/kg i.p.): Toxic
survival of treated animals vs controls (severe trauma ischemia): more likely to survive than controls
Infarct Volume ([9]; 1.0 mg/kg/hr i.v.): 17.7 mm^3
Infarct Volume ([9]; 10 mg/kg/hr i.v.): 13.8 mm^3
Infarct Volume ([9]; 100 mg/kg/hr i.v.): Toxic
infarct volume reduction ([10]; 100 mg/kg i.p. at 0.5, 5, 17, 29 and 41 hours post stroke): approximately 50%
infarct volume reduction ([10]; 100 mg/kg i.p. at 5, 17, 29, and 41 hours post stroke): approximately 50%
lethality protection (% survived) ([11]; 10 mg/kg): 42%
lethality protection (% survived) ([11]; 32 mg/kg): 50%
lethality protection (% survived) ([11]; 100 mg/kg): 75%
lethality protection (% survived) ([11]; 320 mg/kg): 92%
lethality protection ([11]; Compound I: at high levels): only partially effective
errors in 8-arm radial maze ([12]; 1.0 mg/kg/hr for 24 hours): 29.8 errors
errors in 8-arm radial maze ([12]; 32 mg/kg/hr for 24 hours): 18.19 errors
errors in 8-arm radial maze ([12]; 50 mg/kg/hr for 24 hours): 6.23 errors
errors in 8-arm radial maze ([12]; 100 mg/kg/hr for 24 hours): 5.83 errors
error levels ([12]; high doses): less effective
protection of CK against the effects of βAP fragments (creatine kinase (CK)): asymptotically leveling out at a substantially incomplete level of protection
toxicity (C57BL/6L mice): significant toxicity
